Experiments:
Format in all cases: binding
SspH1 (aa 161–700) = target: T1, SspH1 (aa 161–700) (Salmonella typhimurium, UniProt D0ZVG2); experiment: Full kinetics characterisation of covalent labelling by intact LC-MS; conditions: for ligand efficiencies reflecting the reversible binding interactions: SspH1 and 2, from lower bounds on KI
T1 construct: Recombinant IpaH9.8 (21–545) and SspH1 (161–700) were incubated at 0.5 μM; His-tag (N, cleaved yes); made in house; host or cells: E. coli BL21
Method: (§1) Fig. 3 Validation of HTC hit compounds by intact MS. Labelling heatmaps of dilution series (100–6.25 μM) of compounds 4–10 with (A) WT SspH1 and (B) C492K SspH1. Labelling heatmaps of dilution series of (C) compound 6 and (D) compound 7 with bacterial and human ubiquitin binding proteins. Recombinant proteins were incubated at either 1.0 or 0.5 μM with 50 μM fragments for 24 hours at 4 °C, before fragment labelling was analysed by intact LC-MS. Bacterial proteins are shown in bold and human proteins in italic fonts. (E)–(H) Kinetics analyses: time courses (0–12 hours) of compound labelling (100–1.56 μM) of SspH1 and SspH2 (0.5 μM) for (E) SspH1 and compound 7, and (F) SspH2 and compound 6. Measurements were performed in technical triplicates. Labelling percentages were plotted against time in GraphPad Prism v.10, and curves fitted separately for each replicate using one-phase association, with constraints Y0 = 0 and plateau = highest labelling percentage. Graphs for SspH1 and compound 6, and SspH2 and compound 7 are shown in Fig. S4A and B. Rate constants (kobs, as given by Graphpad Prism calculated K values) were plotted against fragment concentration in triplicate for (G) SspH1 and (H) SspH2. Straight lines were fitted with constraint Yintercept = 0. For SspH2 kinetics, 100 μM kobs was outside the linear range.
(§2) To further understand and compare the labelling of SspH1 and SspH2, we performed a full kinetic analysis of compounds 6 and 7 with both proteins (Fig. 3E–H and Fig. S4A, B). […] Up to a maximum test concentration of 100 μM, the kobsvs. concentration plot was linear for SspH1 so it was not possible to derive individual values of kinact and KI. For SspH2, the relationship was also linear up to 50 μM so it was still only possible to reliably calculate kinact/KI. Nonetheless, we can infer from these plots KI values (SspH1) >100 μM and KI values […] for compounds 6 and 7. From these lower bounds on KI it is clear that the range of ligand efficiencies reflecting the reversible binding interactions with SspH1 and 2 are low (0.19–0.21) and may hint at a challenging binding site for optimising a small molecule inhibitor. Identification of alternative hit series and/or X-ray crystallography would be expected to yield further insight into this putative small molecule binding site. […] At present we don’t understand the molecular basis for the increased reactivity of SspH2 over SspH1, and can only speculate that subtle differences in the active site environment render the catalytic cysteine more reactive.
(§3) Recombinant SspH1 (aa 161–700) and SspH2 (aa 166–783) were both characterised against compounds 6 and 7. A dilution series in DMSO was prepared for the compound, and 1 μL added to three separate wells in a 384 well plate, representing technical triplicates of each condition. 99 μL of 0.5 μM SspH1 or SspH2 in 25 mM HEPES pH 7.5, 50 mM NaCl buffer was added to the wells and mixed thoroughly (final compound concentrations 100, 50, 25, 12.5, 6.25, 3.125, 1.56 μM). This mixture was then dispensed into 8 wells of 10 μL each in a new 384 well plate, one for each time point. The plate was incubated at 4 °C during intact MS. Intact protein LC-MS was performed as previously described,[40] at approximate time points 0, 1, 2, 4, 6, 8 and 12 hours, and deconvoluted as above. The exact times of each measurement were saved with each reading and used for kinetics calculations. Labelling percentages were plotted against time in GraphPad Prism v.10, and curves fitted separately for each replicate using one-phase association, with constraints Y0 = 0 and plateau = highest labelling percentage. Rate constants (kobs, as given by Graphpad Prism calculated K values) were then plotted against concentration in triplicate, and straight lines fitted with constraint Yintercept = 0. Data are presented as mean ± SD, n = 3. Slope values were converted from μM^−1 hour^−1 to M^−1 s^−1 to give kinact/KI values. […]

SspH2 (aa 166–783) = target: T2, SspH2 (aa 166–783) (Salmonella typhimurium, UniProt D0ZPH9); experiment: as above; conditions: for fold higher kinact/KI with SspH2 than SspH1: SspH2 versus SspH1
T2 construct: Recombinant SspH1 (aa 161–700) and SspH2 (aa 166–783) were both characterised; His-tag (N, cleaved yes); made in house; host or cells: E. coli BL21
Method: as §1, §2, §3

SspH2 = target: T3, SspH2 (Salmonella typhimurium, UniProt D0ZPH9); experiment: Intact LC-MS labelling dilution series; conditions: dilution series 100–6.25 μM, 24 hours at 4 °C
T3 construct: Recombinant SspH1 (aa 161–700) and SspH2 (aa 166–783) were both characterised; His-tag (N, cleaved yes); made in house; host or cells: E. coli BL21
Method: as §1, with “range. […]” for “range.”

T1 sequence (D0ZVG2 161-700): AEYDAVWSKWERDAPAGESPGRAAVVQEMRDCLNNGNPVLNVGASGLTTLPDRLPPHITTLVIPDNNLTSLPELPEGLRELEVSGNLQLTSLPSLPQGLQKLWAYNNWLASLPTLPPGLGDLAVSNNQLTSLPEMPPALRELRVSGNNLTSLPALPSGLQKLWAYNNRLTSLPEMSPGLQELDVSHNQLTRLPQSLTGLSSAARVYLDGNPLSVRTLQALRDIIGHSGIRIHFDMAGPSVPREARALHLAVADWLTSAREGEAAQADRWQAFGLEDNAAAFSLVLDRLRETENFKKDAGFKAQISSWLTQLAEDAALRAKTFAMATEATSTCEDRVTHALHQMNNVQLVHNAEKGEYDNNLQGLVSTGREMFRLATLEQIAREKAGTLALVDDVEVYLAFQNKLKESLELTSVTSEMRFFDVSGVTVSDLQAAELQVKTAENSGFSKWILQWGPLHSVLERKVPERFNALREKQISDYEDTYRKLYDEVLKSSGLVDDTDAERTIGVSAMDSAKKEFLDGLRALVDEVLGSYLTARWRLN
T2 sequence (D0ZPH9 166-783): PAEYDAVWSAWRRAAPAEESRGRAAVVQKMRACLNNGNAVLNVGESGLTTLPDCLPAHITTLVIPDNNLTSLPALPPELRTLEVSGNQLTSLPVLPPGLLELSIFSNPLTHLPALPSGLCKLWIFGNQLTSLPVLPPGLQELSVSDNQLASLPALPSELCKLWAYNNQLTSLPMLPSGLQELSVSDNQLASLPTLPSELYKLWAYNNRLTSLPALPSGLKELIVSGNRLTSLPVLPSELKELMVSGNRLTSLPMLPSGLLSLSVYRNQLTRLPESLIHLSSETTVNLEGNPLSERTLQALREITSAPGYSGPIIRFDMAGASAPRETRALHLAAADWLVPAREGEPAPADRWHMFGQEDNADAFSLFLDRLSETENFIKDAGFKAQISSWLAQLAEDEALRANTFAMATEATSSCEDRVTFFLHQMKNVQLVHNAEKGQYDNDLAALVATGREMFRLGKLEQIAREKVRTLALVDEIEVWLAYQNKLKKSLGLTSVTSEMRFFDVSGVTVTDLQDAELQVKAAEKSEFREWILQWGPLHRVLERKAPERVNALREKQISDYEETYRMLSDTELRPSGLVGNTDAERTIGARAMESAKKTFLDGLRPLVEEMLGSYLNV
T3 sequence (D0ZPH9 166-783): as above

SMILES	Ki (SspH1 (aa 161–700)) [µM]	kinact/KI (SspH1 (aa 161–700)) [M⁻¹ s⁻¹]	ligand efficiencies reflecting the reversible binding interactions (SspH1 (aa 161–700))	Ki (SspH2 (aa 166–783)) [µM]	kinact/KI (SspH2 (aa 166–783)) [M⁻¹ s⁻¹]	fold higher kinact/KI with SspH2 than SspH1 (SspH2 (aa 166–783))	labelling of SspH2 (SspH2)
Cc1cc(-c2nc3ccccc3n2C2CCN(C(=O)CCl)CC2)cc(C)c1O.Cl [compound 6]	> 100	1.2	0.19–0.21	> 50	6.9	4–5 fold	very strong labelling
Cl.O=C(CCl)N1CCC(n2c(-c3ccc(C(F)(F)F)cc3)nc3ccccc32)CC1 [compound 7]	> 100	1.4	0.19–0.21	> 50	6.2	4–5 fold	very strong labelling

From article PMC12584752, “Covalent fragment screening to inhibit the E3 ligase activity of bacterial NEL enzymes SspH1 and SspH2” (RSC Chemical Biology, 2025)
